Experimental data from ChEMBL document CHEMBL4382283, “Discovery of a GPR40 Superagonist: The Impact of Aryl Propionic Acid α-Fluorination” (ACS Med Chem Lett, 2019).
Calls of active or inactive are those of the source. No cut-off for these calls is given here.

Key:
[1] = molecular target: T1, Free fatty acid receptor 1 (Homo sapiens, UniProt O14842); test: Agonist activity at human GPR40 expressed in HEK293 cells assessed as induction of intracellular calcium mobilization by Fluo-8 dye based FLIPR assay; format: functional, cell-based
[2] = molecular target: T1, Free fatty acid receptor 1; test: Agonist activity at human GPR40 expressed in CHOK1 cells assessed as induction of Galphaq-mediated IP1 accumulation after 90 mins HTRF assay; format: functional, cell-based
[3] = molecular target: Free fatty acid receptor 1 (Rattus norvegicus, UniProt Q8K3T4); test: Agonist activity at rat GPR40 expressed in HEK293 cells assessed as induction of intracellular calcium mobilization by Fluo-8 dye based FLIPR assay; format: functional, cell-based
[4] = Metabolic stability in human hepatocytes assessed as parent compound remaining at 10 uM after 2 hr by LC-MS analysis; format: ADME, cell-based, Hepatocyte
[5] = Drug metabolism in human hepatocytes at 10 uM after 2 hr by LC-MS analysis; format: ADME, cell-based, Hepatocyte
[6] = Cmax in Sprague-Dawley rat at 10 mg/kg, po by LC-MS/MS analysis; format: ADME, organism-based; parameters: dose 10 mg/kg, route oral; details: in vivo
[7] = Half life in Sprague-Dawley rat at 10 mg/kg, po by LC-MS/MS analysis; format: ADME, organism-based; details: in vivo
[8] = Half life in Sprague-Dawley rat at 2 mg/kg, iv by LC-MS/MS analysis; format: ADME, organism-based; details: in vivo
[9] = Clearance in Sprague-Dawley rat at 10 mg/kg, po or 2 mg/kg, iv by LC-MS/MS analysis; format: ADME, organism-based; details: in vivo
[10] = Volume of distribution at steady state in Sprague-Dawley rat at 10 mg/kg, po or 2 mg/kg, iv by LC-MS/MS analysis; format: ADME, organism-based; details: in vivo, read-out: Vdss
[11] = Oral bioavailability in Sprague-Dawley rat at 10 mg/kg by LC-MS/MS analysis; format: ADME, organism-based; details: in vivo
[12] = molecular target: T1, Free fatty acid receptor 1; test: Full agonist activity at human GPR40 expressed in CHOK1 cells assessed as induction of GalphaS-mediated cAMP accumulation after 30 mins HTRF assay; format: functional, cell-based
[13] = molecular target: T1, Free fatty acid receptor 1; test: Agonist activity at GPR40 in human islets assessed as induction of glucose-stimulated insulin secretion at 10 uM after 1 hr by HTRF assay relative to (S)-3-Cyclopropyl-3-(3-(((1r,4S)-4-(2-fluoro-5-methoxyphenyl)cyclohexyl)methoxy)phenyl)propanoic acid
Rattus norvegicus [14] = test: Antiobesity activity in ZDF rat assessed as body weight loss at 10 mg/kg daily for 38 days relative to control; format: functional
Rattus norvegicus [15] = test: Antiobesity activity in ZDF rat assessed as reduction in food intake at 10 mg/kg daily for 38 days relative to control; format: functional; parameters: scale not given: the % may be the effect or the level left
Rattus norvegicus [16] = test: In vivo agonist activity at GPR40 in ZDF rat assessed as increase in plasma total GLP1 level at 10 mg/kg daily for 38 days relative to control; format: functional
[17] = molecular target: T1, Free fatty acid receptor 1; test: Agonist activity at GPR40 in human islets assessed as induction of glucose-stimulated insulin secretion after 1 hr by HTRF assay
[18] = molecular target: T1, Free fatty acid receptor 1; test: Positive allosteric modulation of human GPR40 expressed in CHOK1 cells assessed as increase in [3H]-(S)-3-Cyclopropyl-3-(3-(((1r,4S)-4-(2-fluoro-5-methoxyphenyl)cyclohexyl)methoxy)phenyl)propanoic acid binding after 60 mins by TopCount method; format: cell-based
Mus musculus [19] = test: Antidiabetic activity in diet-induced obese mouse assessed as reduction in blood glucose excursion at 10 mg/kg, po administered 45 mins prior to glucose challenge and measured up to 120 mins by OGTT; format: functional, organism-based
[20] = Plasma concentration in diet-induced obese mouse at 10 mg/kg, po; format: ADME, organism-based; details: in vivo
[21] = Protein binding in human plasma at 10 uM after 6 hrs by equilibrium dialysis method; format: ADME, cell-free; details: read-out: PPB
[22] = molecular target: T1, Free fatty acid receptor 1
Description: Displacement of [3H]AM-1638 from human GPR40 expressed in CHOK1 cells assessed as association half life after 60 mins by TopCount method

[23] = molecular target: T1, Free fatty acid receptor 1; remark: listed apart in the source
Description: Displacement of [3H]AM-1638 from human GPR40 expressed in CHOK1 cells assessed as dissociation half life after 40 mins by TopCount method

[24] = molecular target: T1, Free fatty acid receptor 1; test: Partial agonist activity at human GPR40 expressed in CHOK1 cells assessed as induction of GalphaS-mediated cAMP accumulation after 30 mins HTRF assay; format: functional, cell-based
Cytochrome P450 [25] = test: Inhibition of CYP450 in human liver microsomes at 10 uM after 0.5 hrs by LC-MS/MS analysis; format: ADME
Cytochrome P450 [26] = test: Induction of CYP450 in human liver microsomes at 10 uM after 0.5 hrs by LC-MS/MS analysis; format: ADME
[27] = Genotoxicity in Salmonella typhi by Ames test; format: toxicity; details: salmonella enterica subsp. enterica serovar […]
[28] = molecular target: Voltage-gated inwardly rectifying potassium channel KCNH2 (Homo sapiens, UniProt Q12809); test: Inhibition of human ERG
Mus musculus [29] = test: Antidiabetic activity in diet-induced obese mouse assessed as reduction in blood glucose excursion administered orally 45 mins prior to glucose challenge and measured up to 120 mins by OGTT; format: functional
[30] = Plasma concentration in diet-induced obese mouse at 0.03 mg/kg, po; format: ADME, organism-based; details: in vivo
[31] = Plasma concentration in diet-induced obese mouse at 0.1 mg/kg, po; format: ADME, organism-based; details: in vivo
[32] = Plasma concentration in diet-induced obese mouse at 0.3 mg/kg, po; format: ADME, organism-based; details: in vivo
[33] = Plasma concentration in diet-induced obese mouse at 1 mg/kg, po; format: ADME, organism-based; details: in vivo
[34] = Plasma concentration in diet-induced obese mouse at 3 mg/kg, po; format: ADME, organism-based; details: in vivo
Mus musculus [35] = test: Antiobesity activity in diet-induced obese C57BL/6J mouse assessed as body weight loss administered orally once daily for 14 days; format: functional, organism-based
Mus musculus [36] = test: Antiobesity activity in diet-induced obese C57BL/6J mouse assessed as reduction in cumulative food intake administered orally once daily for 14 days; format: functional, organism-based
Mus musculus [37] = test: Antiobesity activity in diet-induced obese C57BL/6J mouse assessed as body weight loss at 0.3 mg/kg, po once daily for 14 days measured on day 15 (reference value: 3.74 +/- 0.6%); format: functional
Mus musculus [38] = test: Antiobesity activity in diet-induced obese C57BL/6J mouse assessed as body weight loss at 1 mg/kg, po once daily for 14 days measured on day 15 (reference value: 3.74 +/- 0.6%); format: functional
Mus musculus [39] = test: Antiobesity activity in diet-induced obese C57BL/6J mouse assessed as body weight loss at 3 mg/kg, po once daily for 14 days measured on day 15 (reference value: 3.74 +/- 0.6%); format: functional
Mus musculus [40] = test: Antiobesity activity in diet-induced obese C57BL/6J mouse assessed as body weight loss at 10 mg/kg, po once daily for 14 days measured on day 15 (reference value: 3.74 +/- 0.6%); format: functional
Mus musculus [41] = test: Antiobesity activity in diet-induced obese C57BL/6J mouse assessed as body weight loss at 30 mg/kg, po once daily for 14 days measured on day 15 (reference value: 3.74 +/- 0.6%); format: functional
[42] = Plasma concentration in diet-induced obese C57BL/6J mouse at 0.3 mg/kg, po once daily for 14 days measured 24 hrs post last dose; format: ADME, organism-based
[43] = Plasma concentration in diet-induced obese C57BL/6J mouse at 1 mg/kg, po once daily for 14 days measured 24 hrs post last dose; format: ADME, organism-based
[44] = Plasma concentration in diet-induced obese C57BL/6J mouse at 3 mg/kg, po once daily for 14 days measured 24 hrs post last dose; format: ADME, organism-based
[45] = Plasma concentration in diet-induced obese C57BL/6J mouse at 10 mg/kg, po once daily for 14 days measured 24 hrs post last dose; format: ADME, organism-based
[46] = Plasma concentration in diet-induced obese C57BL/6J mouse at 30 mg/kg, po once daily for 14 days measured 24 hrs post last dose; format: ADME, organism-based

Chain of Free fatty acid receptor 1 (Rattus norvegicus, UniProt Q8K3T4) (Q8K3T4 whole entry): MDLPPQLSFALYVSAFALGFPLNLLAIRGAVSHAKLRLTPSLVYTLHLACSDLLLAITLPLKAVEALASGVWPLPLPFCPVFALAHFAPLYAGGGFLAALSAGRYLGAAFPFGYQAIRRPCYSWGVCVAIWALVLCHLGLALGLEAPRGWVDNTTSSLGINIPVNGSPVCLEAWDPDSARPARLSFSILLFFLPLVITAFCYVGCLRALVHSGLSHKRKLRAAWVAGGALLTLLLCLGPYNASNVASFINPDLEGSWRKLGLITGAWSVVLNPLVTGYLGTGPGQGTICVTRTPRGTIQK
T1 sequence (O14842 whole entry): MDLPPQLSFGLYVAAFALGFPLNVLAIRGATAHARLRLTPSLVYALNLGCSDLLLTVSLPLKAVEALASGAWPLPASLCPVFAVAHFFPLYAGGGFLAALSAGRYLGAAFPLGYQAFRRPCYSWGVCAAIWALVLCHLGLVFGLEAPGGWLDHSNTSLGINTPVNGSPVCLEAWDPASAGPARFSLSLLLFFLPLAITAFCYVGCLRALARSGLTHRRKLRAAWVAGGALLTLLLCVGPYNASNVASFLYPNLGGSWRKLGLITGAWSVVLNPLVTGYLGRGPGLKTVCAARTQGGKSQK
Chain of Voltage-gated inwardly rectifying potassium channel KCNH2 (Q12809 whole entry): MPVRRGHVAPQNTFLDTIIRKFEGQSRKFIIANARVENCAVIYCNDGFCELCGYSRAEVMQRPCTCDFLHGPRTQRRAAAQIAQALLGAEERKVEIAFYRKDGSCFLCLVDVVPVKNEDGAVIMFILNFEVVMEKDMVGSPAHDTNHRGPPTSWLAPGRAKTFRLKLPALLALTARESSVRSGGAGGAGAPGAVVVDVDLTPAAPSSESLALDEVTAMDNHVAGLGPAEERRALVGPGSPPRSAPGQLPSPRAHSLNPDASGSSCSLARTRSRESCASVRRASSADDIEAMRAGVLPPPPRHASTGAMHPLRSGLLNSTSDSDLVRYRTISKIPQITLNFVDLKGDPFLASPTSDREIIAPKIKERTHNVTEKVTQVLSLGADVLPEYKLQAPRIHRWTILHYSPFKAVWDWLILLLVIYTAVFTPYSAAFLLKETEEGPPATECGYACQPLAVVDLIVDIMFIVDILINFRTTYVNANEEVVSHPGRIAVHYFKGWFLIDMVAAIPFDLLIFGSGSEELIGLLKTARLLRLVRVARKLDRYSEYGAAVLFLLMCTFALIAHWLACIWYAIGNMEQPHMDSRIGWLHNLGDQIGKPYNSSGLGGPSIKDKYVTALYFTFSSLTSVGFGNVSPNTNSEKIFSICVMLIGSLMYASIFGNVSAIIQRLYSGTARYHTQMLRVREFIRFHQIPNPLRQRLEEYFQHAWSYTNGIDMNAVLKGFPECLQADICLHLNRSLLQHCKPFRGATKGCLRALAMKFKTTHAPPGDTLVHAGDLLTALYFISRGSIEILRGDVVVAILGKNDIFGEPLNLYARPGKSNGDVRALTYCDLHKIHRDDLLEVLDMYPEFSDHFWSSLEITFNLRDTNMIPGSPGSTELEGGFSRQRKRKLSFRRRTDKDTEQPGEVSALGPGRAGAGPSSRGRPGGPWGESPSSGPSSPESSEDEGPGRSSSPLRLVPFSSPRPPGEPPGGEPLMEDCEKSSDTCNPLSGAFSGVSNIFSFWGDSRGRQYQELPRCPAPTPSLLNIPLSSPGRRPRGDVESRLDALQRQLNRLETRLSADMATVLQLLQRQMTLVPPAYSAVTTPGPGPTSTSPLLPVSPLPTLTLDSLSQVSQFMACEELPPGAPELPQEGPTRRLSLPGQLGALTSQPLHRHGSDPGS

Structure (SMILES): COc1ccc(F)c([C@H]2CC[C@H](COc3cccc([C@H](C4CC4)[C@@H](C)C(=O)O)c3)CC2)c1
- EC50 [1]: 2.2 nM
- EC50 [2]: 22 nM
- EC50 [3]: 4.9 nM

Structure (SMILES): COc1ccc(F)c([C@H]2CC[C@H](COc3cccc([C@H](C4CC4)[C@H](C)C(=O)O)c3)CC2)c1
- EC50 [2]: 2 nM
- Stability [4]: 45%
- Drug metabolism [5]: 5%
- Cmax [6]: 1360 ng/mL
- half-life [7]: 4.4 h
- half-life [8]: 4.8 h
- clearance [9]: 8.1 mL/min/kg
- Vd [10]: 0.9 L/kg
- bioavailability [11]: 45.5%

Structure (SMILES): COc1ccc(F)c([C@H]2CC[C@H](COc3cccc([C@H](C4CC4)[C@](C)(F)C(=O)O)c3)CC2)c1
- EC50 [2]: 89 nM
- Activity [12]: Active

Structure (SMILES): Cc1cc(OCCCS(C)(=O)=O)cc(C)c1-c1cccc(COc2ccc3c(c2)OC[C@H]3CC(=O)O)c1
- EC50 [3]: 39 nM
- Efficacy [13]: 40%

Structure (SMILES): COc1ccc(F)c([C@H]2CC[C@H](COc3cccc([C@H](C4CC4)C(C)(C)C(=O)O)c3)CC2)c1
- EC50 [1]: 0.11 nM
- EC50 [2]: 220 nM
- EC50 [3]: 0.31 nM

Structure (SMILES): COc1ccc(F)c(-c2ccc(COc3cccc([C@@H](CC(=O)O)C4CC4)c3)cc2C2=CCCC2(C)C)c1
- Activity [2]: Active
- Activity [12]: Active

Structure (SMILES): COc1ccc(F)c([C@H]2CC[C@H](COc3cccc([C@H](C4CC4)[C@H](F)C(=O)O)c3)CC2)c1
- EC50 [1]: 54 nM
- EC50 [3]: 163 nM
- Activity [12]: Active

Structure (SMILES): COc1ccc(F)c([C@H]2CC[C@H](COc3cccc([C@@H](CC(=O)O)C4CC4)c3)CC2)c1
- EC50 [1]: 0.94 nM
- EC50 [2]: 199 nM
- EC50 [3]: 4.1 nM
- Activity [12]: Active
- Activity (Rattus norvegicus [14]): 6%
- Activity (Rattus norvegicus [15]): 10%
- fold change (FC) (Rattus norvegicus [16]): 6.2
- EC50 [17]: 1370 nM
- Activity [18]: Active
- Stability [4]: 56%
- Drug metabolism [5]: 4%
- Cmax [6]: 18200 ng/mL
- half-life [7]: 9.1 h
- half-life [8]: 7.2 h
- clearance [9]: 0.4 mL/min/kg
- Vd [10]: 0.2 L/kg
- bioavailability [11]: 91.4%
- Activity (Mus musculus [19]): Active
- concentration [20]: 98700 nM
- fraction unbound at 6 h, 10 µM [21]: < 0.001
- T1/2 [22]: 0.8 min
- T1/2 [23]: 0.00233 h

Structure (SMILES): COc1ccc(F)c([C@H]2CC[C@H](COc3cccc([C@H](C4CC4)[C@@H](F)C(=O)O)c3)CC2)c1
- EC50 [1]: 1.1 nM
- EC50 [2]: 20 nM
- EC50 [3]: 28 nM
- Activity [12]: Active
- Stability [4]: 63%
- Drug metabolism [5]: 7%
- Cmax [6]: 3700 ng/mL
- half-life [7]: 4.3 h
- half-life [8]: 4.7 h
- clearance [9]: 2.7 mL/min/kg
- Vd [10]: 0.9 L/kg
- bioavailability [11]: 73.8%

Structure (SMILES): COc1ccc(F)c([C@H]2CC[C@@H](COc3cccc([C@@H](CC(=O)O)C4CC4)c3)CC2)c1
- Activity [24]: Active

Structure (SMILES): COc1ccc(F)c([C@H]2CC[C@H](COc3cccc([C@H](C4CC4)C(F)(F)C(=O)O)c3)CC2)c1
- EC50 [1]: 16 nM
- EC50 [3]: 34 nM

Structure (SMILES): COc1ccc(F)c([C@H]2CC[C@H](COc3cccc([C@H](C4CC4)[C@@](C)(F)C(=O)O)c3)CC2)c1
- EC50 [1]: 0.25 nM
- EC50 [2]: 3.1 to 5.3 nM
- EC50 [3]: 0.34 nM
- Activity [12]: Active
- EC50 [17]: 3.7 nM
- Activity [18]: Active
- Stability [4]: 73%
- Drug metabolism [5]: 1%
- inhibition (INH) (Cytochrome P450 [25]): Not Active
- Activity (Cytochrome P450 [26]): Not Active
- Activity [27]: Non-Toxic
- inhibition (INH) [28]: Not Active
- Cmax [6]: 495 ng/mL
- half-life [7]: 7.9 h
- half-life [8]: 4.3 h
- clearance [9]: 17 mL/min/kg
- Vd [10]: 3.2 L/kg
- bioavailability [11]: 92.1%
- Activity (Mus musculus [29]): Dose-dependent effect
- minimal effective dose (Mus musculus [29]; po, read-out: MED): 3 mg/kg
- concentration [30]: 7.4 nM
- concentration [31]: 22 nM
- concentration [32]: 87 nM
- concentration [33]: 220 nM
- concentration [34]: 870 nM
- concentration [20]: 3830 nM
- Activity (Mus musculus [35]): Dose-dependent effect
- Activity (Mus musculus [36]): Dose-dependent effect
- Activity (Mus musculus [37]): 3.15%
- Activity (Mus musculus [38]): 1.05%
- Activity (Mus musculus [39]): -2.56%
- Activity (Mus musculus [40]): -10.07%
- Activity (Mus musculus [41]): -6.84%
- concentration at 24 h [42]: 100 nM
- concentration at 24 h [43]: 340 nM
- concentration at 24 h [44]: 1290 nM
- concentration at 24 h [45]: 7050 nM
- concentration at 24 h [46]: 391000 nM
- fraction unbound at 6 h, 10 µM [21]: < 0.001
- T1/2 [22]: 3.3 min
- T1/2 [23]: 0.333 h
